Results taken from patent publication US8552029B2, “Quinoline derivatives and uses of the same” (National Taipei University of Technology, priority 2011, dated 2013).

**Q.** With `Nc1ccc(-n2cc(C(=O)O)c(=O)c3cc(F)c(N/N=C/c4ccccc4)cc32)cc1` [Compound 7, 1-(4-aminophenyl)-7-(2-benzylidenehydrazinyl)-6-fluoro-4-oxo-1,4-dihydroquinoline-3-carboxylic acid] as the compound, how does the melting point read?
**A.** 314 to 316 °C

**Q.** For `Nc1ccc(-n2cc(C(=O)O)c(=O)c3cc(F)c(N/N=C/c4ccc(F)cc4)cc32)cc1` [Compound 8, 1-(4-aminophenyl)-6-fluoro-7-[2-(4-fluorobenzylidene)hydrazinyl]-4-oxo-1,4-dihydroquinoline-3-carboxylic acid], which melting point is on record?
**A.** 308 to 310 °C

**Q.** For `COc1ccc(/C=N/Nc2cc3c(cc2F)c(=O)c(C(=O)O)cn3-c2ccc(N)cc2)cc1` [Compound 9, 1-(4-aminophenyl)-6-fluoro-7-(2-(4-methoxybenzylidene)hydrazinyl)-4-oxo-1,4-dihydroquinoline-3-carboxylic acid], which melting point is on record?
**A.** 307 to 309 °C

**Q.** For `COc1ccc(/C=N/Nc2cc3c(cc2F)c(=O)c(C(=O)O)cn3-c2ccc(N)cc2F)cc1` [Compound 10, 1-(4-amino-2-fluorophenyl)-6-fluoro-7-[2-(4-methoxybenzylidene)hydrazinyl]-4-oxo-1,4-dihydroquinoline-3-carboxylic acid], which melting point is on record?
**A.** 321 to 322 °C

**Q.** Which melting point does the source give for `Nc1ccc(-n2cc(C(=O)O)c(=O)c3cc(F)c(N/N=C/c4ccncc4)cc32)c(F)c1` [Compound 11, 1-(4-amino-2-fluorophenyl)-6-fluoro-4-oxo-7-[2-(pyridin-4-ylmethylene)hydrazinyl]-1,4-dihydroquinoline-3-carboxylic acid] here?
**A.** 176 to 178 °C
